Data on two molecules can be found in article PMC11784639, “Archaeal Signalling Networks—New Insights Into the Structure and Function of Histidine Kinases and Response Regulators of the Methanogenic Archaeon Methanosarcina acetivorans” (Environmental Microbiology, 2025).

In assay [1] the target is T1, MA2082 (Methanosarcina acetivorans, UniProt Q8TP40).
T1 construct: gene MA_2082
T1 sequence (Q8TP40 1-698): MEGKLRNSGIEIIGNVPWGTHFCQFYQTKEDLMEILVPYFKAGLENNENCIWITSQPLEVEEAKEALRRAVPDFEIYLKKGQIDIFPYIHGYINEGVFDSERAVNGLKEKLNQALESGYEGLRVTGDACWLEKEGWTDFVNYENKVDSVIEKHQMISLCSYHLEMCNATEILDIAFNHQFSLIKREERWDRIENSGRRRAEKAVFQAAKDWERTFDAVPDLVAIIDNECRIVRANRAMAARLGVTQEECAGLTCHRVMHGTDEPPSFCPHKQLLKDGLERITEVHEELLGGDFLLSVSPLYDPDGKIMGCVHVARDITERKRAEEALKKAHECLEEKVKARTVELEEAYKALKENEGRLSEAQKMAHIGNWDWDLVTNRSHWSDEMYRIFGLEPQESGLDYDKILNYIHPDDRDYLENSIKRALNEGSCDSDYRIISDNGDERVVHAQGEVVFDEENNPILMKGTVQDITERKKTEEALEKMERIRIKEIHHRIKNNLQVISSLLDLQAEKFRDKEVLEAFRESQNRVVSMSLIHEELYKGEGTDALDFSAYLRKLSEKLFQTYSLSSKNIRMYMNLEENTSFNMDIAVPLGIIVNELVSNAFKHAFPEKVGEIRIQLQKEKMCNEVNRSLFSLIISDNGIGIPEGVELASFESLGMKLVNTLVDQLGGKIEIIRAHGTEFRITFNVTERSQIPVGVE
The assay is described as follows: fluorescence titration with TNP-ATP. Format: binding. Conditions: fluorescent ATP analogue; kinase buffer pH 8, 5 mM MgCl2; 541 nm emission.

The target of assay [2] is T2, MA4377 (full-length) (Methanosarcina acetivorans, UniProt Q8THY1).
T2 construct: gene MA_4377
T2 sequence (Q8THY1 1-1028): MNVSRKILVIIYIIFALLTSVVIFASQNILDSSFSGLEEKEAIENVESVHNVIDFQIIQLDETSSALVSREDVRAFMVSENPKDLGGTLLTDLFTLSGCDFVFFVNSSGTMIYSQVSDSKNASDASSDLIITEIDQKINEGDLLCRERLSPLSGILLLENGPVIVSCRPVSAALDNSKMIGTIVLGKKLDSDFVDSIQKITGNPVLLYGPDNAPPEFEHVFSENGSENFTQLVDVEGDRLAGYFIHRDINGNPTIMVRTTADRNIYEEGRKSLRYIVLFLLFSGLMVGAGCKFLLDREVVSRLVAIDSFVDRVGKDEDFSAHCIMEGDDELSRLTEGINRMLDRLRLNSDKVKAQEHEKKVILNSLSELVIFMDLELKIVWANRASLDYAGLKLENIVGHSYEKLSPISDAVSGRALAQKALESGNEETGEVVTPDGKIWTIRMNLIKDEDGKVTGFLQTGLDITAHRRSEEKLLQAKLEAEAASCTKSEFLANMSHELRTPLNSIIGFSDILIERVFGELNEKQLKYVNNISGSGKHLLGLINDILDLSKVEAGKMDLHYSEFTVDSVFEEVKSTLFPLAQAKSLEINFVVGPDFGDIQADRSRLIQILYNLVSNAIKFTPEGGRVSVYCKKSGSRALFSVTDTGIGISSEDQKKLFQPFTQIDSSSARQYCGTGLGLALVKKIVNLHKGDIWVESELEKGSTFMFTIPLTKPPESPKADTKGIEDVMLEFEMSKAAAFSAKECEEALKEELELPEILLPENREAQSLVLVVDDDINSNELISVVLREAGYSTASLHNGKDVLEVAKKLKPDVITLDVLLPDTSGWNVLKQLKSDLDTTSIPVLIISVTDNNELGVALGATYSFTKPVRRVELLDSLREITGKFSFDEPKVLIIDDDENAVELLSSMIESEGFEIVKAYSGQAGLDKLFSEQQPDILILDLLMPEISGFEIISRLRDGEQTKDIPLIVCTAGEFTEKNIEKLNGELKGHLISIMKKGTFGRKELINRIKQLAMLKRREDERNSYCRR
Nature of the assay: fluorescence titration with TNP-ATP. Format: binding. The settings on record: fluorescent ATP analogue; kinase buffer pH 8, 5 mM MgCl2; 541 nm emission.

Assay [3] has as its target T3, PKR1R2 (Methanosarcina acetivorans, UniProt Q8THY1).
T3 construct: gene MA_4377; cytosolic truncation PAS-HK-R1-R2 without CHASE4 and HAMP (membrane) part
T3 sequence (Q8THY1 351-1028 limits assumed): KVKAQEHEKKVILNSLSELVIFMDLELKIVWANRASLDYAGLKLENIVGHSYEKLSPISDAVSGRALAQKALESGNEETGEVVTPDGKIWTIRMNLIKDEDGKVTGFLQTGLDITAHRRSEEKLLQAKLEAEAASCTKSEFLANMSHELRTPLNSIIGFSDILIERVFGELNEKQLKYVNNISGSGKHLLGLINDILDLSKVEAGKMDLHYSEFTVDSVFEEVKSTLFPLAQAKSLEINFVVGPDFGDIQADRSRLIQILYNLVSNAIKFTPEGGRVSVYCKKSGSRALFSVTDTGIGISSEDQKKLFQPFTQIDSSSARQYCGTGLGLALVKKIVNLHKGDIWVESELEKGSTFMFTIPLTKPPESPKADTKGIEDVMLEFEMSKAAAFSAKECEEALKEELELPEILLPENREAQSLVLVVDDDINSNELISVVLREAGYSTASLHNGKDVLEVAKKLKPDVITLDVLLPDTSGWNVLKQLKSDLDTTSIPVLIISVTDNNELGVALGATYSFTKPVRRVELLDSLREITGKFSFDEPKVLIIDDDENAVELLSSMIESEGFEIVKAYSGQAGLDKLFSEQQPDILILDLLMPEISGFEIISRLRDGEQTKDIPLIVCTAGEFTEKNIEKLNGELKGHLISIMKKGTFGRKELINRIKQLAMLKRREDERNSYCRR
Nature of the assay: fluorescence titration with TNP-ATP. Format: binding. The settings on record: fluorescent ATP analogue; kinase buffer pH 8, 5 mM MgCl2; 541 nm emission.

Assay [4] deals with T4, RdmS (MA0863) (Methanosarcina acetivorans, UniProt Q8TSD5).
T4 construct: gene MA_0863
T4 sequence (Q8TSD5 1-749): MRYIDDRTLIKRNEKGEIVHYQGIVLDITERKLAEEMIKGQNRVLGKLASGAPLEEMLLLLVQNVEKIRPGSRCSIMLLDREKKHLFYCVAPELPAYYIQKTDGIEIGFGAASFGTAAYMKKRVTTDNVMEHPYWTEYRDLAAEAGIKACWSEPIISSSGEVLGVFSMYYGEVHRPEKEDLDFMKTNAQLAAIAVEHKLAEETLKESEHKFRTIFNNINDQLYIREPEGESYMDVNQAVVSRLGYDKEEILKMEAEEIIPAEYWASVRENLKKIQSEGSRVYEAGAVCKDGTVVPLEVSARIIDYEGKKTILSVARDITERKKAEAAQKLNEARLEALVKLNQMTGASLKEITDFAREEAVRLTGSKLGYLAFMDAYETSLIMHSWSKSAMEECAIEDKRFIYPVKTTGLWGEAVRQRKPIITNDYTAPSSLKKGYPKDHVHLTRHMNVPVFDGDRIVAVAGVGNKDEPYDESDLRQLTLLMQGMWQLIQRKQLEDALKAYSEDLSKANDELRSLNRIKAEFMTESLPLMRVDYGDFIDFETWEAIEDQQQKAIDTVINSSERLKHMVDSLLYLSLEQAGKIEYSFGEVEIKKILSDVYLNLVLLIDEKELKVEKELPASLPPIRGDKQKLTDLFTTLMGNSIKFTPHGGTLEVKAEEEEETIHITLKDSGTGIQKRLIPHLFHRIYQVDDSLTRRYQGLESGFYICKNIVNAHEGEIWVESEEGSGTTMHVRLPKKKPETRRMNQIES
The assay is described as follows: fluorescence titration with TNP-ATP. The assay is classed as binding. Conditions: fluorescent ATP analogue; kinase buffer pH 8, 5 mM MgCl2; 541 nm emission.

In assay [5] the target is T5, MA2013 (Methanosarcina acetivorans, UniProt Q8TPA1).
T5 construct: gene MA_2013
T5 sequence (Q8TPA1 1-1000): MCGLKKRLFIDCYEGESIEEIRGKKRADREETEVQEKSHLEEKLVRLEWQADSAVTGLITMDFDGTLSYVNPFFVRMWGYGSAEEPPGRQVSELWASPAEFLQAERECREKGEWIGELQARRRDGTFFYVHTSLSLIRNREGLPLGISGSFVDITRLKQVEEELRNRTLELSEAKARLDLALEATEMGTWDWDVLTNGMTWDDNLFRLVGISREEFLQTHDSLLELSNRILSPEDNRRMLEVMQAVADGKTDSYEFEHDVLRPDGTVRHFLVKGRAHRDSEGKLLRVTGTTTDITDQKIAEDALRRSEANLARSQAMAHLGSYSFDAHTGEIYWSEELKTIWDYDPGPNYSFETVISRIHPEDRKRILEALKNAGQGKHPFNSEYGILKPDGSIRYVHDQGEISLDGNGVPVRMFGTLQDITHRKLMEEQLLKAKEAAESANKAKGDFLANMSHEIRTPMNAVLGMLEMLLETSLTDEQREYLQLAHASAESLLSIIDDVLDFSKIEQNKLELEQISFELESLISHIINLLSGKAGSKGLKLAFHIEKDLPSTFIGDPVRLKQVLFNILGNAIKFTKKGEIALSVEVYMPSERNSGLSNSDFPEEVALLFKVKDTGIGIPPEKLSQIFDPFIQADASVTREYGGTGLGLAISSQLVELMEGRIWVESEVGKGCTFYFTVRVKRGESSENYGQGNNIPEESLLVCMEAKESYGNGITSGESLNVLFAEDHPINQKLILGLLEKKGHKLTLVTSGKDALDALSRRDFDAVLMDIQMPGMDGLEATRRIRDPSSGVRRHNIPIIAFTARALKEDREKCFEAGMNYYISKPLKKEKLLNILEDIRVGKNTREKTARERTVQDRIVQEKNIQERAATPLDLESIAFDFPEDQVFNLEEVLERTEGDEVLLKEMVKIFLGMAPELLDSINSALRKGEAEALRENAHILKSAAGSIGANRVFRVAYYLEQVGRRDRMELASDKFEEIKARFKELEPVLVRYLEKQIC
Nature of the assay: fluorescence titration with TNP-ATP. The assay is classed as binding. The settings on record: fluorescent ATP analogue; kinase buffer pH 8, 5 mM MgCl2; 541 nm emission.

The target of assay [6] is T6, PK (Methanosarcina acetivorans, UniProt Q8THY1).
T6 construct: gene MA_4377; PAS and HK domains only (no CHASE4, HAMP, R1, R2)
T6 sequence (Q8THY1 351-765 limits assumed): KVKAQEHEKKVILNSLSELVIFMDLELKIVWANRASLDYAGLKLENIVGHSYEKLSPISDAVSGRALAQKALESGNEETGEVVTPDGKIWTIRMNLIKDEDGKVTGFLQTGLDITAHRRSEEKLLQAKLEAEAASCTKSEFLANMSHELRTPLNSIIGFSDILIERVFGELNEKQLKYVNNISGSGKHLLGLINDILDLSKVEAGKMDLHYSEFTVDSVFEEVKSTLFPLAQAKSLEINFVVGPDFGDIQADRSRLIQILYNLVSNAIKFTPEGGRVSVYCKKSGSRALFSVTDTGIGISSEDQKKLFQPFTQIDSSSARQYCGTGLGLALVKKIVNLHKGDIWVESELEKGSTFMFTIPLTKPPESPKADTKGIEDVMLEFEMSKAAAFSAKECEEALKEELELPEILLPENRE
Nature of the assay: autophosphorylation, SDS-PAGE autoradiography. Format: biochemical. The settings on record: labelled compound ([γ-32P]ATP 3.3 μM) with 200 μM ATP; 10 μM kinase; kinase buffer pH 8, 5 mM MgCl2.

As to “2′‐(3′)‐O‐(2,4,6‐trinitrophenyl)‐adenosin 5′‐triphosphat [TNP-ATP]”, the Kd in assay [1] is 29.6 ± 4.4 µM; in assay [2], ~11 µM; in assay [3], ~11 µM; in assay [4] it was 17 ± 5.7 µM; in assay [5] it was 28.2 ± 1.3 µM.

`Nc1ncnc2c1ncn2[C@@H]1O[C@H](COP(=O)(O)OP(=O)(O)OP(=O)(O)O)[C@@H](O)[C@H]1O` [ATP]: the “autophosphorylation, SDS-PAGE autoradiography” value in assay [6] is “indeed displayed time‐dependent autokinase activity”.
